Type in all cases: cell-based
One test concerns the target T1, human TLR8 (Homo sapiens, UniProt Q9NR97).
T1 construct: host or cells: HEK-Blue cells (HEK293-derived reporter line)
T1 sequence (Q9NR97 27-1041): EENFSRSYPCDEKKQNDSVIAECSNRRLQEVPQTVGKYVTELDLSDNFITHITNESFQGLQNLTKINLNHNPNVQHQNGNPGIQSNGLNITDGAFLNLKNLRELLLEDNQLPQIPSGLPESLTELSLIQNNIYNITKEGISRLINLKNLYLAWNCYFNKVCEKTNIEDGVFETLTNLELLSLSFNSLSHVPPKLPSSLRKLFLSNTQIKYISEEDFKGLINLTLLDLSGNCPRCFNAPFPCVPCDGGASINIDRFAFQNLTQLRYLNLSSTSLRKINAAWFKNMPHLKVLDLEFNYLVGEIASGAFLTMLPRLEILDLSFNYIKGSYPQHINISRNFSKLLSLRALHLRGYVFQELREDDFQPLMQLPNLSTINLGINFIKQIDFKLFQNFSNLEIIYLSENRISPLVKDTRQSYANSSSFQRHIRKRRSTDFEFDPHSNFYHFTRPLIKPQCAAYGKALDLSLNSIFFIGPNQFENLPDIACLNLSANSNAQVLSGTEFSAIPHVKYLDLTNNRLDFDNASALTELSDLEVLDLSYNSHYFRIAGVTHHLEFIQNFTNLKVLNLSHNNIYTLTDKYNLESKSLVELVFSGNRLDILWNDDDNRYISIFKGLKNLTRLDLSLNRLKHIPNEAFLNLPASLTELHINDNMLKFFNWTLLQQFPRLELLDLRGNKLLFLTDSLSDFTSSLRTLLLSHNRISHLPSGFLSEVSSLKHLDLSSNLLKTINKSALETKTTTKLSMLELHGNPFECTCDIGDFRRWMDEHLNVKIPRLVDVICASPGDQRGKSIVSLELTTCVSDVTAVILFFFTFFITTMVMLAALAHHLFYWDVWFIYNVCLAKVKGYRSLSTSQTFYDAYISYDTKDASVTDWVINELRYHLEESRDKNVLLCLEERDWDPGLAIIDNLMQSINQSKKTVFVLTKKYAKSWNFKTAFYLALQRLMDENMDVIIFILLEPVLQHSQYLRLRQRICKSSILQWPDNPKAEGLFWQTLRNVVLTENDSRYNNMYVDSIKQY
Put plainly: TLR8 inhibition reporter assay (HEK-Blue cells, SEAP reporter, R848 stimulation). Particulars: HEK-Blue cells overexpressing human TLR8, SEAP reporter, R848 15.9 μM. Put shortly: (§1)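 Read-out is SEAP activity in HEK-Blue detection medium after 22 h at 37 °C, converted to percent inhibition against agonist-plus-DMSO and reference-inhibitor controls. Cells saw compound (0.05 nM–50 μM, 30 min, room temperature) before gardiquimod 7.5 μM, R848 15.9 μM or ODN2006 5 nM for TLR7, TLR8 and TLR9, respectively.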
On the technique in general: Reporter assays use an easily measured gene product as a stand-in for the process of interest.

A further test deals with T2, human TLR7 (Homo sapiens, UniProt Q9NYK1).
T2 construct: host or cells: HEK-Blue cells (HEK293-derived reporter line)
T2 sequence (Q9NYK1 27-1049): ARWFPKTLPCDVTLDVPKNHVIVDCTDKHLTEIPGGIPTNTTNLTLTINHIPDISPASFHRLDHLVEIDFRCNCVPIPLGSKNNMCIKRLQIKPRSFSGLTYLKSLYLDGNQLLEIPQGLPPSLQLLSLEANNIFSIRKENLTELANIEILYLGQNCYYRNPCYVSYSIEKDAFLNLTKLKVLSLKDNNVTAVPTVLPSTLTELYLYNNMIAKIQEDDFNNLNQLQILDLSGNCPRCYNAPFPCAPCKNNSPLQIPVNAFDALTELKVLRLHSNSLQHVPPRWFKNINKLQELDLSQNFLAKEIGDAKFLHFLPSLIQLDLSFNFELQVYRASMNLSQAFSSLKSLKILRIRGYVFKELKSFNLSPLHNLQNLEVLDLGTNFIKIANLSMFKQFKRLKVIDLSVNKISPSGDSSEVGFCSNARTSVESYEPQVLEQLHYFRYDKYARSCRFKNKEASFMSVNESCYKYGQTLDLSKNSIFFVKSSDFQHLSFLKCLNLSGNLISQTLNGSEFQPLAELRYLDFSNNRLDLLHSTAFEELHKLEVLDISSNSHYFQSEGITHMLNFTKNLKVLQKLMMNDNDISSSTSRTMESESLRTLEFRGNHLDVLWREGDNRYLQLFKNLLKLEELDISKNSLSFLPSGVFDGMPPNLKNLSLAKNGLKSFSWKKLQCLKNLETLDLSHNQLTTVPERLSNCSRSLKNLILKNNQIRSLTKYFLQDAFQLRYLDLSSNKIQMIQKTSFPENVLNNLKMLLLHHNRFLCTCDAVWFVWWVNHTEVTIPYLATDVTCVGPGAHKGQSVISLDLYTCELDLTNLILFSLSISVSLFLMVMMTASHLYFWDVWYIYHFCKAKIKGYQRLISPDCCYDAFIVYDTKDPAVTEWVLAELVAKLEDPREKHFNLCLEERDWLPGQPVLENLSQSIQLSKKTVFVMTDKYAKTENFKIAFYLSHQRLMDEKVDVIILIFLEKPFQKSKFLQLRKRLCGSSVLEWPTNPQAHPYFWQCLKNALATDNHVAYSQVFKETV
Put plainly: TLR7 inhibition reporter assay (HEK-Blue cells, SEAP reporter, gardiquimod stimulation). Particulars: HEK-Blue cells overexpressing human TLR7, SEAP reporter, gardiquimod 7.5 μM. The gist of the method: as §1

Another test concerns the target T3, human TLR9 (Homo sapiens, UniProt Q9NR96).
T3 construct: host or cells: HEK-Blue cells (HEK293-derived reporter line)
T3 sequence (Q9NR96 26-1032): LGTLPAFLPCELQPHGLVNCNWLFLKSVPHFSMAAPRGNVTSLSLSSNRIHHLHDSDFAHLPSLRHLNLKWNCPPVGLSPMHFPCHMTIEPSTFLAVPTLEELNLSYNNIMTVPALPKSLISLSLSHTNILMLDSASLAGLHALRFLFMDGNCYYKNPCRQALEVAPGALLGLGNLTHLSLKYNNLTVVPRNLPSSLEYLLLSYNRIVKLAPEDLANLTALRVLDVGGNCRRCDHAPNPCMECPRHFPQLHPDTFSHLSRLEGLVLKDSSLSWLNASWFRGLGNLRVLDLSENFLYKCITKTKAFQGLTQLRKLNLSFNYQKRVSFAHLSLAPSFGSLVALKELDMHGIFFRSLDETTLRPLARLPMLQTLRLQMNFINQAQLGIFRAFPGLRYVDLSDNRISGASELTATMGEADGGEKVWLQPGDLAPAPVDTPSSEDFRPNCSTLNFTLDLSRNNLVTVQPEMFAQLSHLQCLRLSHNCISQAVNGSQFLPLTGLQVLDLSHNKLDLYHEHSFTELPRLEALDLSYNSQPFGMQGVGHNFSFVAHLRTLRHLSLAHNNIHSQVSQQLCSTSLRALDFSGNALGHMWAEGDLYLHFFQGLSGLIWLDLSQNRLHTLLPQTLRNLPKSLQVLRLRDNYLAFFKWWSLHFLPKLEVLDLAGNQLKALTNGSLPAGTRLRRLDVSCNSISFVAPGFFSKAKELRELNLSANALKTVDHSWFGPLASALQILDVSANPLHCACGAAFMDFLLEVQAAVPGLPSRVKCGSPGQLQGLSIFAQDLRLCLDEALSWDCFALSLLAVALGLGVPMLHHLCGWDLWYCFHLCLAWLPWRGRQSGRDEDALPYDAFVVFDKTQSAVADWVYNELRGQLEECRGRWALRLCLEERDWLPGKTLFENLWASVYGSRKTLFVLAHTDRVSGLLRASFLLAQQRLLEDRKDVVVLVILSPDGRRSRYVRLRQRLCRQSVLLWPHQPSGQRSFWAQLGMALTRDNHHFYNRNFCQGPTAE
Briefly: TLR9 inhibition reporter assay (HEK-Blue cells, SEAP reporter, ODN2006 stimulation). Particulars: HEK-Blue cells overexpressing human TLR9, SEAP reporter, ODN2006 5 nM. The gist of the method:
as §1

`Cc1cc(-c2[nH]c3ccc(C4CCN(C5CCS(=O)(=O)CC5)CC4)cc3c2C(C)C)cn2ccnc12` [Example 799, 4-(4-(3-isopropyl-2-(8-methylimidazo[1,2-a]pyridin-6-yl)-1H-indol-5-yl)piperidin-1-yl)tetrahydro-2H-thiopyran 1,1-dioxide]: the IC50 on human TLR8 is under 100 nM; against human TLR7, under 100 nM; against human TLR9, 100 to 1000 nM.

In the case of `Cc1cc(-c2[nH]c3ccc(C4CCN(C5CCS(=O)(=O)CC5)CC4)cc3c2C(C)C)cc2cccnc12` [Example 800, 4-(4-(3-isopropyl-2-(8-methylquinolin-6-yl)-1H-indol-5-yl)piperidin-1-yl)tetrahydro-2H-thiopyran 1,1-dioxide], the IC50 against human TLR8 is 100 to 1000 nM; against human TLR7 it was under 100 nM; at human TLR9 it was 1000 to 50000 nM.

As for `CC(C)c1c(-c2cnc3[nH]ccc3c2)[nH]c2ccc(C3CCN(C4CCN(C)CC4)CC3)cc12` [Example 802, 5-(3-isopropyl-5-(1′-methyl-[1,4′-bipiperidin]-4-yl)-1H-indol-2-yl)-1H-pyrrolo[2,3-b]pyridine], the IC50 at human TLR8, on human TLR7 and at human TLR9 was 100 to 1000 nM throughout.

In the case of `CC(C)c1c(-c2ccc3nccn3c2)[nH]c2ccc(C3CCN(C4CCN(C(C)C)CC4)CC3)cc12` [Example 803, 6-(3-isopropyl-5-(1′-isopropyl-[1,4′-bipiperidin]-4-yl)-1H-indol-2-yl)imidazo[1,2-a]pyridine], the IC50 was under 100 nM on human TLR8, under 100 nM against human TLR7 and 100 to 1000 nM on human TLR9.

Regarding `CC(C)c1c(-c2ccnc3[nH]ncc23)[nH]c2ccc(C3CCN(C4CCNCC4O)CC3)cc12` (stereo not drawn) [Example 804, 4-(3-isopropyl-2-(1H-pyrazolo[3,4-b]pyridin-4-yl)-1H-indol-5-yl)-[1,4′-bipiperidin]-3′-ol], the IC50 against human TLR8 was under 100 nM; on human TLR7, under 100 nM; on human TLR9 it was 100 to 1000 nM.

With `Cc1c(-c2nccc3[nH]cnc23)[nH]c2ccc(C3CCN(C4CCN(C(C)C)CC4)CC3)cc12` [Example 805, 4-(5-(1′-isopropyl-[1,4′-bipiperidin]-4-yl)-3-methyl-1H-indol-2-yl)-1H-imidazo[4,5-c]pyridine], the IC50 at human TLR8 is 1000 to 50000 nM; at human TLR7, 1000 to 50000 nM; against human TLR9, under 100 nM.

In the case of `Cc1c(-c2ncnn3cccc23)[nH]c2ccc(C3CCN(C4CCN(C(C)C)CC4)CC3)cc12` [Example 806, 4-(5-(1′-isopropyl-[1,4′-bipiperidin]-4-yl)-3-methyl-1H-indol-2-yl)pyrrolo[2,1-f][1,2,4]triazine], the IC50 at human TLR8 was under 100 nM; at human TLR7 it was 1000 to 50000 nM; against human TLR9, under 100 nM.

Regarding `Cc1c(-c2ccnn3ccnc23)[nH]c2ccc(C3CCN(C4CCN(C(C)C)CC4)CC3)cc12` [Example 807, 8-(5-(1′-isopropyl-[1,4′-bipiperidin]-4-yl)-3-methyl-1H-indol-2-yl)imidazo[1,2-b]pyridazine], the IC50 lay within 1000 to 50000 nM against human TLR8, 1000 to 50000 nM against human TLR7 and 100 to 1000 nM against human TLR9.

`Cc1c(-c2ncc3[nH]ccc3n2)[nH]c2ccc(C3CCN(C4CCN(C(C)C)CC4)CC3)cc12` [Example 808, 2-(5-(1′-isopropyl-[1,4′-bipiperidin]-4-yl)-3-methyl-1H-indol-2-yl)-5H-pyrrolo[3,2-d]pyrimidine]: the IC50 was 1000 to 50000 nM at human TLR8, 1000 to 50000 nM against human TLR7 and under 100 nM against human TLR9.

Consider `Cc1c(-c2ncc3cc[nH]c3n2)[nH]c2ccc(C3CCN(C4CCN(C(C)C)CC4)CC3)cc12` [Example 809, 2-(5-(1′-isopropyl-[1,4′-bipiperidin]-4-yl)-3-methyl-1H-indol-2-yl)-7H-pyrrolo[2,3-d]pyrimidine], for which the IC50 against human TLR8 is 1000 to 50000 nM; on human TLR7, 1000 to 50000 nM; at human TLR9 it was 100 to 1000 nM.

Consider `Cc1c(-c2ccnc3[nH]ccc23)[nH]c2ccc(C3CCN(C4CCN(C)CC4)CC3)cc12` [Example 810, 4-(3-methyl-5-(1′-methyl-[1,4′-bipiperidin]-4-yl)-1H-indol-2-yl)-1H-pyrrolo[2,3-b]pyridine], for which the IC50 against human TLR8 is under 100 nM; against human TLR7 it was under 100 nM; at human TLR9 it was 100 to 1000 nM.

As to `CCN1CCC(N2CCC(c3ccc4[nH]c(-c5ccnc6[nH]ccc56)c(C)c4c3)CC2)CC1` [Example 811, 4-(5-(1′-ethyl-[1,4′-bipiperidin]-4-yl)-3-methyl-1H-indol-2-yl)-1H-pyrrolo[2,3-b]pyridine], the IC50 on human TLR8, against human TLR7 and on human TLR9 was under 100 nM in each case.

On to `Cc1c(-c2ccnc3[nH]ccc23)[nH]c2ccc(C3CCN(C4CCN(CC(C)C)CC4)CC3)cc12` [Example 812, 4-(5-(1′-isobutyl-[1,4′-bipiperidin]-4-yl)-3-methyl-1H-indol-2-yl)-1H-pyrrolo[2,3-b]pyridine], for which the IC50 against human TLR8, on human TLR7 and against human TLR9 was under 100 nM in each case.

What is called IC50 is the concentration needed to halve the response being measured.
